Tests used:
[1] = xn = mol fraction of the nth substance listed; settings: 101 kPa, Liquid, Vibrating tube method
[2] = refractive index (Na D-line) (dimensionless); xn = mol fraction of the nth substance listed; settings: 101 kPa, Liquid, Standard Abbe refractometry
[3] = Liquid; for mass density: 101 kPa, Vibrating tube method; for vapor or sublimation pressure: Ebulliometric method (Recirculating still)
[4] = refractive index (Na D-line) (dimensionless); settings: 101.33 kPa, Liquid, Standard Abbe refractometry

CCCC(=O)[O-].C[NH2+]CCO [N-methyl-2-hydroxyethylammonium butanoate] + CCCOC(C)=O
Settings | mass density, [1] [kg/m3] | refractive index, [2]
308.15 K, x2 = 0 | 1032.53 | –
308.15 K, x2 = 0.0785 | 1016.82 | –
308.15 K, x2 = 0.4177 | 981.77 | –
308.15 K, x2 = 0.9454 | 884.44 | –
308.16 K, x2 = 0.1247 | 1013.03 | –
308.16 K, x2 = 0.207 | 1003.47 | –
308.16 K, x2 = 0.3035 | 993.9 | –
308.16 K, x2 = 0.5088 | 968.89 | –
308.16 K, x2 = 0.6042 | 952.99 | –
308.16 K, x2 = 0.696 | 936.16 | –
308.16 K, x2 = 0.7939 | 917.53 | –
308.16 K, x2 = 0.8936 | 896.61 | –
313.15 K, x2 = 0 | – | 1.4504
313.15 K, x2 = 0.0785 | 1013.32 | 1.4483
313.15 K, x2 = 0.1247 | – | 1.4457
313.15 K, x2 = 0.207 | – | 1.4417
313.15 K, x2 = 0.3035 | 989.89 | 1.4365
313.15 K, x2 = 0.4177 | 977.59 | 1.4288
313.15 K, x2 = 0.5088 | – | 1.4222
313.15 K, x2 = 0.6042 | – | 1.4146
313.15 K, x2 = 0.696 | 931.3 | 1.4068
313.15 K, x2 = 0.7939 | – | 1.3991
313.15 K, x2 = 0.8936 | – | 1.387
313.15 K, x2 = 0.9454 | – | 1.3809
313.16 K, x2 = 0 | 1029.14 | –
313.16 K, x2 = 0.1247 | 1009.37 | –
313.16 K, x2 = 0.207 | 999.76 | –
313.16 K, x2 = 0.5088 | 964.73 | –
313.16 K, x2 = 0.6042 | 948.38 | –
313.16 K, x2 = 0.7939 | 912.41 | –
313.16 K, x2 = 0.8936 | 891 | –
313.16 K, x2 = 0.9454 | 878.87 | –
318.15 K, x2 = 0.0785 | 1009.82 | –
318.15 K, x2 = 0.207 | 996.08 | –
318.15 K, x2 = 0.4177 | 973.39 | –
318.15 K, x2 = 0.696 | 926.41 | –
318.15 K, x2 = 0.7939 | 907.24 | –
318.16 K, x2 = 0 | 1025.72 | –
318.16 K, x2 = 0.1247 | 1005.67 | –
318.16 K, x2 = 0.3035 | 985.85 | –
318.16 K, x2 = 0.5088 | 960.4 | –
318.16 K, x2 = 0.6042 | 943.75 | –
318.16 K, x2 = 0.8936 | 885.74 | –
318.16 K, x2 = 0.9454 | 873.25 | –
323.15 K, x2 = 0.1247 | 1001.94 | –
323.15 K, x2 = 0.207 | 992.3 | –
323.15 K, x2 = 0.5088 | 956.04 | –
323.15 K, x2 = 0.6042 | 939.06 | –
323.15 K, x2 = 0.696 | 921.47 | –
323.16 K, x2 = 0 | 1022.26 | –
323.16 K, x2 = 0.0785 | 1006.34 | –
323.16 K, x2 = 0.3035 | 981.79 | –
323.16 K, x2 = 0.4177 | 969.14 | –
323.16 K, x2 = 0.7939 | 901.89 | –
323.16 K, x2 = 0.8936 | 880 | –
323.16 K, x2 = 0.9454 | 867.59 | –

CCOC(C)=O [ethyl acetate] + CCCC(=O)[O-].C[NH2+]CCO
x1 = 1
Settings | mass density, 303.15 K [kg/m3] | mass density, 308.15 K [kg/m3] | mass density, 313.15 K [kg/m3] | mass density, 318.16 K [kg/m3] | mass density, 323.15 K [kg/m3] | refractive index, 303.15 K
[1] | 888.76 | 882.58 | 876.34 | 870.06 | 863.73 | –
[2] | – | – | – | – | – | 1.3672

COC(C)=O [methyl ethanoate] + CCCC(=O)[O-].C[NH2+]CCO
x1 = 1
Settings | mass density, 288.15 K [kg/m3] | mass density, 293.14 K [kg/m3] | mass density, 298.14 K [kg/m3] | mass density, 303.14 K [kg/m3] | mass density, 308.14 K [kg/m3] | mass density, 313.14 K [kg/m3] | mass density, 318.14 K [kg/m3] | mass density, 323.15 K [kg/m3] | refractive index, 288.15 K
[1] | 939.9 | 933.4 | 926.8 | 920.2 | 913.5 | 906.7 | 899.9 | 893 | –
[2] | – | – | – | – | – | – | – | – | 1.365

CCCC(=O)[O-].C[NH2+]CCO [N-methyl-2-hydroxyethylammonium butanoate]
Settings | mass density, [3] [kg/m3] | refractive index, [4]
288.15 K | 1046 | 1.4579
293.15 K | 1042.6 | –
298.15 K | 1039.2 | –
303.15 K | 1035.9 | 1.4534
308.15 K | 1032.5 | –
313.15 K | – | 1.4504
313.16 K | 1029.1 | –
318.16 K | 1025.7 | –
323.16 K | 1022.3 | –

CCCOC(C)=O [propyl ethanoate]
Settings | mass density, 298.15 K [kg/m3] | mass density, 308.14 K [kg/m3] | mass density, 313.15 K [kg/m3] | mass density, 318.15 K [kg/m3] | mass density, 323.15 K [kg/m3] | refractive index, 313.15 K | vapor or sublimation pressure, 374 K [kPa]
[3] | 882.61 | 871.38 | 865.7 | 860 | 854.26 | – | 101.3
[4] | – | – | – | – | – | 1.3741 | –

CCCOC(C)=O [propyl ethanoate] + CCCC(=O)[O-].C[NH2+]CCO
x1 = 1
Settings | mass density, 308.14 K [kg/m3] | mass density, 313.15 K [kg/m3] | mass density, 318.15 K [kg/m3] | mass density, 323.15 K [kg/m3] | refractive index, 313.15 K
[1] | 871.38 | 865.7 | 860 | 854.26 | –
[2] | – | – | – | – | 1.3741

CCOC(C)=O [ethyl acetate]
Settings | mass density, 298.15 K [kg/m3] | mass density, 303.15 K [kg/m3] | mass density, 308.15 K [kg/m3] | mass density, 313.15 K [kg/m3] | mass density, 318.16 K [kg/m3] | mass density, 323.15 K [kg/m3] | refractive index, 303.15 K | vapor or sublimation pressure, 349.8 K [kPa]
[3] | 894.9 | 888.76 | 882.58 | 876.34 | 870.06 | 863.73 | – | 101.3
[4] | – | – | – | – | – | – | 1.3672 | –

COC(C)=O [methyl ethanoate]
Settings | mass density, 288.15 K [kg/m3] | mass density, 293.14 K [kg/m3] | mass density, 298.14 K [kg/m3] | mass density, 303.14 K [kg/m3] | mass density, 308.14 K [kg/m3] | mass density, 313.14 K [kg/m3] | mass density, 318.14 K [kg/m3] | mass density, 323.15 K [kg/m3] | refractive index, 288.15 K | vapor or sublimation pressure, 330.1 K [kPa]
[3] | 939.9 | 933.4 | 926.8 | 920.2 | 913.5 | 906.7 | 899.9 | 893 | – | 101.3
[4] | – | – | – | – | – | – | – | – | 1.365 | –
